According to patent publication US20240376148A1, “MEDICAMENT FOR INHIBITING DIETARY OBESITY AND POLYPEPTIDE USED THEREFOR” (INSTITUTE OF ZOOLOGY, CHINESE ACADEMY OF SCIENCES, priority 2022, published 2024):

Columns and labels:
Assay type in all cases: in vivo
[1] = tested on: fecal flora; assay: 16s amplicon sequencing of fecal flora of SPF mice; settings: SPF mice feces
Procedure: At this time, in order to further confirm whether the reason for the weight loss of the SPF mice was related to the change of the ecological structure of the intestinal flora, the feces of mice in NC, HFD and D3 groups collected in the previous SPF mice experiment were analyzed by 16 s amplicon sequencing. sequencing method (reference: Quan, LH, et al. Myristoleic acid produced by enterococci reduces obesity through brown adipose tissue activation. Gut 69, 1239-1247 (2020).) was used to analyze the fecal flora of mice.

[2] = tested on: A. muciniphila; assay: qPCR of abundance of A. muciniphila in intestine of rhesus monkeys; settings: macaque, p<0.05
Description: FIGS. 7A-7H are a graph showing the effect of using D3 on rats and rhesus monkeys in Example 2 of the present invention. FIG. 7A is the schematic diagram of sampling time point in rats; FIG. 7B is the graph showing the results of the growth rate of body weight with different feeding treatments of the rat; FIG. 7C is the graph showing the results of the short-term feed intake measurement of the rat; FIG. 7D is the graph showing the results of the qPCR detection of the abundance of A. muciniphila in intestine of rats with different feeding treatment; FIG. 7E is a schematic diagram of the sampling time point in rhesus monkeys; FIG. 7F is the graph showing the results of the growth rate of body weight with different feeding treatments of rhesus monkeys; FIG. 7G is the feed intake monitoring graphs of rhesus monkeys with different feeding treatments; FIG. 7H is the graph showing the results of the qPCR detection of the abundance of A. muciniphila in intestine of rhesus monkeys with different feeding treatment. The data shown in the figure are mean±standard deviation, the number of repetitions is 5-10, and the significant difference of each group is analyzed by Wilcoxon test. * representing a significance analysis result of P<0.05, ** representing a significance analysis result of P<0.01.
Food intake (unit: g/only/week) and body weight were monitored weekly. […]

[3] = Macaque experiment (high-fat diet); settings: rhesus monkeys, high-fat diet (45 kcal % fat), intragastric 0.5 mg-1 mg/Kg once/day, after 6 weeks
Procedure: Rhesus monkeys were used in the macaque experiment. 9 in total, […] at the beginning of the experiment, and each weighed 2.5±0.5 Kg. They were raised individually in the same environment, in a room with suitable temperature and humidity control, and the light/dark cycle was 12 hours, free diet and drinking water, and fed with standard laboratory feed (#2150230401). After 7 days of adaptation, they were randomly assigned to 3 groups with 3 animals in each group, and each group was subjected to different feeding treatments, specifically as follows (see figure e of FIG. 7):
NC group (i.e. normal diet group): fed with standard laboratory feed (#2150230401), free diet and drinking water for 6 weeks.
HFD group (i.e. high-fat diet group): fed with high-fat diet (45 kcal % fat), free diet and drinking water for 6 weeks.
D3 group (i.e. high-fat diet+D3 medicine intragastric administration group): fed with high-fat diet (45 kcal % fat), free diet and drinking water for 6 weeks. HD medicines were selected as D3, intragastrically administrated with D3, 0.5 mg-1 mg/Kg body weight, and intragastrically administrated according to 1.7 ml/Kg body weight, once/day.
Food intake (unit: g/only/week) and body weight were monitored weekly. Fresh excreta of the above animals were collected and stored at −80° C. for further analysis of macaque fecal flora (method as above).

Sequence: RTRYCRTGR [D3]
- abundance of Bacteroides and A. muciniphila (LEfSc analysis) [1]: significant increase
- abundance of Prevotella, Desulfovibrio and Lawsonia (LEfSc analysis) [1]: significant decrease
- fecal flora (diversity analysis and PCOA) vs HFD group [1]: significantly different from that of the HFD group
- relative abundance of A. muciniphila in the intestine by qPCR [2]: significantly increased
- growth rate of body weight [3]: decreased significantly
